In patent US20230257396A1, “MACROCYCLES AND THEIR USE” (BLOSSOMHILL THERAPEUTICS, INC., priority 2020, published 2023):

Experiments:
Test in all cases: KINOMEscan kinase binding assay (Eurofins/DiscoveRx), % Ctrl
kinases [1] = molecular target: T1, kinases (Homo sapiens, UniProt P00519, F317L)
T1 construct: purchased Eurofins/DiscoveRx; host or cells: E. coli BL21-derived host (T7 phage display) for most kinases; HEK-293 for the rest
Procedure, shortened: (§1)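 Read-out is qPCR of kinase eluted from ligand-coated streptavidin beads after 1 h room-temperature competition with test compound. Values are % Ctrl at the tested concentration, lower meaning tighter binding.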

kinases [2] = molecular target: T2, kinases (Homo sapiens, UniProt P00533, DEL746-750)
T2 construct: purchased Eurofins/DiscoveRx; host or cells: E. coli BL21-derived host (T7 phage display) for most kinases; HEK-293 for the rest
Procedure, shortened: as §1

kinases [3] = molecular target: T3, kinases (Homo sapiens, UniProt P00533, L858R/T790M)
T3 construct: purchased Eurofins/DiscoveRx; host or cells: E. coli BL21-derived host (T7 phage display) for most kinases; HEK-293 for the rest
Procedure, shortened: as §1

kinases [4] = molecular target: T4, kinases (Homo sapiens, UniProt P10721, D816H)
T4 construct: purchased Eurofins/DiscoveRx; host or cells: E. coli BL21-derived host (T7 phage display) for most kinases; HEK-293 for the rest
Procedure, shortened: as §1

kinases [5] = molecular target: T5, kinases (Homo sapiens, UniProt P10721, V559D)
T5 construct: purchased Eurofins/DiscoveRx; host or cells: E. coli BL21-derived host (T7 phage display) for most kinases; HEK-293 for the rest
Procedure, shortened: as §1

kinases [6] = molecular target: T6, kinases (Homo sapiens, UniProt P17948)
T6 construct: purchased Eurofins/DiscoveRx; host or cells: E. coli BL21-derived host (T7 phage display) for most kinases; HEK-293 for the rest
Procedure, shortened: as §1

kinases [7] = molecular target: T7, kinases (Homo sapiens, UniProt P36888, D835Y)
T7 construct: purchased Eurofins/DiscoveRx; host or cells: E. coli BL21-derived host (T7 phage display) for most kinases; HEK-293 for the rest
T7 sequence (P36888 27-993 D835Y): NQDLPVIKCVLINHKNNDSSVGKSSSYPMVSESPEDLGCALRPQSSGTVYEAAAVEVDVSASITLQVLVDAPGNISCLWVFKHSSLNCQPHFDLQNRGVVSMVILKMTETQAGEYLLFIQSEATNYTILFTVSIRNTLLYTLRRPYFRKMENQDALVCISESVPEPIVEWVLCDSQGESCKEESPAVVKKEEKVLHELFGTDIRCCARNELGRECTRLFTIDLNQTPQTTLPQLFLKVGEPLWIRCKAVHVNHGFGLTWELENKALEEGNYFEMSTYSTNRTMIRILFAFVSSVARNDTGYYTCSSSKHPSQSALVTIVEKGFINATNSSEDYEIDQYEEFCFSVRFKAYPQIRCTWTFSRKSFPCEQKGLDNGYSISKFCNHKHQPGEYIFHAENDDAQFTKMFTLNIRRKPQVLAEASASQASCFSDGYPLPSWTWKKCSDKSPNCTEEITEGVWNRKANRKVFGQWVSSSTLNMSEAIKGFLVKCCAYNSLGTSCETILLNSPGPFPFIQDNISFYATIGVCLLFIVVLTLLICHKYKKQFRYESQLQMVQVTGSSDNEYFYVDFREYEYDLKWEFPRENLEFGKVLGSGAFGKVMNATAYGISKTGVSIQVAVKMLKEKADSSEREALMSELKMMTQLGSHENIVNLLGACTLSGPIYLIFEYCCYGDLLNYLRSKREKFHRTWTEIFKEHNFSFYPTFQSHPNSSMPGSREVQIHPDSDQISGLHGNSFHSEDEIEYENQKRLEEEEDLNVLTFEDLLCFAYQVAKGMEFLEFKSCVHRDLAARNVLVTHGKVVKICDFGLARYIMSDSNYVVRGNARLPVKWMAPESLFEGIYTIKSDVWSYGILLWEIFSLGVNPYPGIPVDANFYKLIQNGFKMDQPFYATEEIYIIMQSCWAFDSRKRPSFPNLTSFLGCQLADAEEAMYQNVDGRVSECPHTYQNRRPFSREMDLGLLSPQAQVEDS
Procedure, shortened: as §1

[8] = target ABL1(F317L)-nonphosphorylated; 1 μM
[9] = target ABL1(F317L)-phosphorylated; 1 μM
[10] = target EGFR(E746-A750del); 1 μM
[11] = target EGFR(L858R, T790M); 1 μM
[12] = 1 μM; target ABL1(F317L)-nonphosphorylated
[13] = 1 μM; target ABL1(F317L)-phosphorylated
[14] = 1 μM; target EGFR(E746-A750del)
[15] = 1 μM; target EGFR(L858R, T790M)
[16] = 1 μM; ABL1(F317L)-nonphosphorylated
[17] = 1 μM; ABL1(F317L)-phosphorylated

T1 sequence (P00519 whole entry F317L): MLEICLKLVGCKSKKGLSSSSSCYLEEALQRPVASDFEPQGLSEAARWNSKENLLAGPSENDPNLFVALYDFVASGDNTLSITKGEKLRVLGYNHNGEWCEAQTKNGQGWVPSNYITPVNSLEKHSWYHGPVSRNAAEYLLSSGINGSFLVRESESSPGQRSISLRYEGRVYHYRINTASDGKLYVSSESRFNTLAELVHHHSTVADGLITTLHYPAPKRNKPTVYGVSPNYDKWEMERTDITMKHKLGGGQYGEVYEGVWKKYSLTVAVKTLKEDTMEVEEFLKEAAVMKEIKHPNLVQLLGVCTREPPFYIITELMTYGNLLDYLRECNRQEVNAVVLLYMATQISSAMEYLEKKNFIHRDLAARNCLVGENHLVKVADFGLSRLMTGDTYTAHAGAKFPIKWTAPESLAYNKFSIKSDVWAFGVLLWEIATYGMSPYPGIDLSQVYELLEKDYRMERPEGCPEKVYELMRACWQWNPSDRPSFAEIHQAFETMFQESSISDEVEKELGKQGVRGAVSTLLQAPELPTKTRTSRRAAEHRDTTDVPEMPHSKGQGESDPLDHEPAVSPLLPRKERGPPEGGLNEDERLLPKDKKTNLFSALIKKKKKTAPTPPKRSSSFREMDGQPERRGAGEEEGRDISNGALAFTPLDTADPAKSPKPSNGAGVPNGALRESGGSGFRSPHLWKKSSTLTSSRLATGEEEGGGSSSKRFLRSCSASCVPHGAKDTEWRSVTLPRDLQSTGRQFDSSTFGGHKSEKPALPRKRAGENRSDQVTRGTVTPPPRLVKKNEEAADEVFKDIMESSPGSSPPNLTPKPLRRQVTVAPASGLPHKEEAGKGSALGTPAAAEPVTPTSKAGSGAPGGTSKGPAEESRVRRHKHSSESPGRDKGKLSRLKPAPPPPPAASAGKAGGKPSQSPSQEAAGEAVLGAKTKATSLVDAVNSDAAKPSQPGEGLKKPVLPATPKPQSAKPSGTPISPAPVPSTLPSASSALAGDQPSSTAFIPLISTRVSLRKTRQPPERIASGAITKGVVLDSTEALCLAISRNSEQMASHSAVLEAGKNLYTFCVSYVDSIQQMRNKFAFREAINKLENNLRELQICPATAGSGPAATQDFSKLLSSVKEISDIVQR
T6 sequence (P17948 27-1338): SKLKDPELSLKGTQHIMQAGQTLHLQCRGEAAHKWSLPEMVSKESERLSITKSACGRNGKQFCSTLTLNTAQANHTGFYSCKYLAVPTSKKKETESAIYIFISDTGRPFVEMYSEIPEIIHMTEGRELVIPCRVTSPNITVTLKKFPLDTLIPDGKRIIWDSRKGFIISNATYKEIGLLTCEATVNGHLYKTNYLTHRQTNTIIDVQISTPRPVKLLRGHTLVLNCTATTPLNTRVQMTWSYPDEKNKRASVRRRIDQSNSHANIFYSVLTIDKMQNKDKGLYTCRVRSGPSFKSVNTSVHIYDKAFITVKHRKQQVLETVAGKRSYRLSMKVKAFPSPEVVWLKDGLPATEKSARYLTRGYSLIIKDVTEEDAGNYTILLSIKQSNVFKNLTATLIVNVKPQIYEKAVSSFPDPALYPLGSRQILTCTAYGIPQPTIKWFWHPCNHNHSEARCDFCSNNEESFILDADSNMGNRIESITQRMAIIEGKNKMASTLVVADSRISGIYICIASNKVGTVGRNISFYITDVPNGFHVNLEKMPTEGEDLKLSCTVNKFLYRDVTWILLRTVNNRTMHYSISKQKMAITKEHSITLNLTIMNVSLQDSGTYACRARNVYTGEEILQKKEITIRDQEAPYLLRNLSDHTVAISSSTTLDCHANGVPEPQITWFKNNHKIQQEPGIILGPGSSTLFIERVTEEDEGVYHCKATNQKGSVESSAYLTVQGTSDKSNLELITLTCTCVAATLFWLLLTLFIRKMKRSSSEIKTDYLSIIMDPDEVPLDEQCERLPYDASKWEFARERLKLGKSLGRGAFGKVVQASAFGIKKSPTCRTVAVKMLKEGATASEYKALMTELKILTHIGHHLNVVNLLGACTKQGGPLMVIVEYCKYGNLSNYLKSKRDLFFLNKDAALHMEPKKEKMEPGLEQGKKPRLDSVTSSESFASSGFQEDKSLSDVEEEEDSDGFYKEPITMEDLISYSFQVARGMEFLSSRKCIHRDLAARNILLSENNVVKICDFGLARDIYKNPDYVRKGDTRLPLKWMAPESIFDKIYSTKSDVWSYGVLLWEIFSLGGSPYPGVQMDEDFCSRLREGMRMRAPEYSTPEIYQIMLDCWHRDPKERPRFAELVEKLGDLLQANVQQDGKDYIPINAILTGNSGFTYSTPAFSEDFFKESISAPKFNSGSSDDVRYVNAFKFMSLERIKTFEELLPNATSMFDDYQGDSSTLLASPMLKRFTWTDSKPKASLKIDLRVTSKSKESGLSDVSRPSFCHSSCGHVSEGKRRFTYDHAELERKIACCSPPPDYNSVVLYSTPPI
T4 sequence (P10721 26-976 D816H): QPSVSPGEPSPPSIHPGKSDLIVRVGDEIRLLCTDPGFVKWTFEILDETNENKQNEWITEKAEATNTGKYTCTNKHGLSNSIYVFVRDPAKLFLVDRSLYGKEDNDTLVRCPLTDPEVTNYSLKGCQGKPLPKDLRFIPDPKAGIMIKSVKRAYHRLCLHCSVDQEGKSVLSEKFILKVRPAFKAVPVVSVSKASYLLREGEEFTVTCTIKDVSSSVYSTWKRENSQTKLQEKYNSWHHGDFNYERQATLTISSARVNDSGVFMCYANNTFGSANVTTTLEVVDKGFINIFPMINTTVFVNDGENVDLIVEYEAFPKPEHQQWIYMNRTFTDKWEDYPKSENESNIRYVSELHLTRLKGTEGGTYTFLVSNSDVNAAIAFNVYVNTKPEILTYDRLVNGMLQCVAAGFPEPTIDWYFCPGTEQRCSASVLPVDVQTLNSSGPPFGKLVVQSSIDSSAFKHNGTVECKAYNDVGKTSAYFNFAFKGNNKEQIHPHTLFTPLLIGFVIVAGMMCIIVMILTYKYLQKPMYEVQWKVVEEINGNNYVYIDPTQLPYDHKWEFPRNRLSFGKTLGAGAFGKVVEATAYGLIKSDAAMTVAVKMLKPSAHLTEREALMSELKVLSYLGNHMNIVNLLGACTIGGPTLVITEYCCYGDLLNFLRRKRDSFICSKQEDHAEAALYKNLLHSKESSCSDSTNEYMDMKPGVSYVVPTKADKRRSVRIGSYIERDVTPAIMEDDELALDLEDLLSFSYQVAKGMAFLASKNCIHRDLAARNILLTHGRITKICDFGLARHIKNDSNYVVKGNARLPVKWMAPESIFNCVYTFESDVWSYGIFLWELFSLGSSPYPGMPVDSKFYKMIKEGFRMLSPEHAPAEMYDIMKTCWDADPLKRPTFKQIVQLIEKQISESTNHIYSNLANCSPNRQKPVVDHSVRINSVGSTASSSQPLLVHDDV
T5 sequence (P10721 26-976 V559D): as the sequence (P10721 26-976 D816H) above, with V534D, H791D counted along it

SMILES	% Ctrl, ABL1(F317L)-nonphosphorylated (kinases [1]; [16]) [% Ctrl]	% Ctrl, ABL1(F317L)-phosphorylated (kinases [1]; [17]) [% Ctrl]	% Ctrl, EGFR(E746-A750del) (kinases [2]; 1 μM; EGFR(E746-A750del)) [% Ctrl]	% Ctrl, EGFR(L858R, T790M) (kinases [3]; 1 μM; EGFR(L858R, T790M)) [% Ctrl]	% Ctrl, KIT(D816H) (kinases [4]; 1 μM; KIT(D816H)) [% Ctrl]	% Ctrl, KIT(V559D) (kinases [5]; 1 μM; KIT(V559D)) [% Ctrl]	% Ctrl, FLT1 (kinases [6]; 1 μM; FLT1) [% Ctrl]	% Ctrl, FLT3(D835Y) (kinases [7]; 1 μM; FLT3(D835Y)) [% Ctrl]	other results
Cc1nn(C)c2c1-c1ccc3c(c1)/C(=C/c1[nH]ccc1C(=O)N(C)CCCO2)C(=O)N3 [Ex. 150, [3a(4)Z]-9,14,16-trimethyl-10,11,13,14-tetrahydro-2H-1,17-(ethanediylidene)pyrazolo[4,3-m]dipyrrolo[3,2-f:3′,4′-i][1,4]oxazacyclopentadecine-3,8(5H,9H)-dione]									% Ctrl, ABL1(F317L)-nonphosphorylated (kinases [1]; [8]): 87 % Ctrl; % Ctrl, ABL1(F317L)-phosphorylated (kinases [1]; [9]): 82 % Ctrl; % Ctrl, EGFR(E746-A750del) (kinases [2]; [10]): 98 % Ctrl; % Ctrl, EGFR(L858R, T790M) (kinases [3]; [11]): 83 % Ctrl; % Ctrl, KIT(D816H) (kinases [4]; target KIT(D816H); 1 μM): 87 % Ctrl; % Ctrl, KIT(V559D) (kinases [5]; target KIT(V559D); 1 μM): 88 % Ctrl; % Ctrl, FLT1 (kinases [6]; target FLT1; 1 μM): 100 % Ctrl; % Ctrl, FLT3(D835Y) (kinases [7]; target FLT3(D835Y); 1 μM): 67 % Ctrl
Cc1cc2c([nH]1)/C=C1\C(=O)Nc3cnc(cc31)-c1cnn(C)c1CN(C)CCN(C)C2=O [Ex. 172, [3a(4)Z]-6,9,12,14-tetramethyl-9,10,11,12,13,14-hexahydro-17,1-(azenometheno)pyrazolo[4,3-m]dipyrrolo[3,2-f:3′,4′-i][1,4]diazacyclopentadecine-3,8(2H,5H)-dione]									% Ctrl, ABL1(F317L)-nonphosphorylated (kinases [1]; [12]): 7.1 % Ctrl; % Ctrl, ABL1(F317L)-phosphorylated (kinases [1]; [13]): 1.9 % Ctrl; % Ctrl, EGFR(E746-A750del) (kinases [2]; [14]): 43 % Ctrl; % Ctrl, EGFR(L858R, T790M) (kinases [3]; [15]): 3.3 % Ctrl; % Ctrl, KIT(D816H) (kinases [4]; 1 μM; target KIT(D816H)): 6.4 % Ctrl; % Ctrl, KIT(V559D) (kinases [5]; 1 μM; target KIT(V559D)): 42 % Ctrl; % Ctrl, FLT1 (kinases [6]; 1 μM; target FLT1): 26 % Ctrl; % Ctrl, FLT3(D835Y) (kinases [7]; 1 μM; target FLT3(D835Y)): 0.1 % Ctrl
Cc1cc2c([nH]1)/C=C1\C(=O)Nc3cc(Cl)c(cc31)OCCO[C@@H](C(=O)N[C@@H]1CCNC1)CN(C)C2=O [Ex. 136, [7R,16a(17)Z]-19-chloro-2,5-dimethyl-4,16-dioxo-N-[(3R)-pyrrolidin-3-yl]-4,5,6,7,9,10,15,16-octahydro-1H-12,14-(ethanediylidene)dipyrrolo[3,2-i:3′,4′-l][1,4,7]dioxazacyclopentadecine-7-carboxamide]	59	44	76	93	48	36	97	2.6	
Cc1cc2c([nH]1)/C=C1\C(=O)Nc3cnc(nc31)N(C)CCCOCCN(C)C2=O [Ex.71, [17a(18)Z]-2,5,12-trimethyl-6,7,9,10,11,12-hexahydro-1H-13,15-(azenometheno)dipyrrolo[3,2-f:3′,4′-i][1,4,11,13]oxatriazacyclohexadecine-4,17(5H,16H)-dione]	100	100	100	100	100	100	98	94	
Cc1cc2c([nH]1)/C=C1\C(=O)Nc3cc(Cl)c(cc31)OCCO[C@@H](C(=O)N1CCN(C)CC1)CN(C)C2=O [Ex. 138, [7R,16a(17)Z]-19-chloro-2,5-dimethyl-7-(4-methylpipearazine-1-carbonyl)-6,7,9,10-tetrahydro-1H-12,14-(ethanediylidene)dipyrrolo[3,2-i:3′,4′-l][1,4,7]dioxazacyclopentadecine-4,16(5H,15H)-dione]									% Ctrl, ABL1(F317L)-nonphosphorylated (kinases [1]; [8]): 69 % Ctrl; % Ctrl, ABL1(F317L)-phosphorylated (kinases [1]; [9]): 75 % Ctrl; % Ctrl, EGFR(E746-A750del) (kinases [2]; [10]): 78 % Ctrl; % Ctrl, EGFR(L858R, T790M) (kinases [3]; [11]): 82 % Ctrl; % Ctrl, KIT(D816H) (kinases [4]; target KIT(D816H); 1 μM): 82 % Ctrl; % Ctrl, KIT(V559D) (kinases [5]; target KIT(V559D); 1 μM): 97 % Ctrl; % Ctrl, FLT1 (kinases [6]; target FLT1; 1 μM): 96 % Ctrl; % Ctrl, FLT3(D835Y) (kinases [7]; target FLT3(D835Y); 1 μM): 45 % Ctrl
Cc1cc2c([nH]1)/C=C1\C(=O)Nc3ccc(cc31)-c1cnn(C)c1COCCN(C)C2=O [Ex. 124, [3a(4)Z]-6,9,14-trimethyl-10,11,13,14-tetrahydro-2H-1,17-(ethanediylidene)pyrazolo[4,3-m]dipyrrolo[3,2-f:3′,4′-i][1,4]oxazacyclopentadecine-3,8(5H,9H)-dione]	0	0.2	15	1.7	0.4	36	13	5.6	
Cc1cc2c([nH]1)/C=C1\C(=O)Nc3ccc(cc31)-c1c(noc1C(C)C)COCCN(C)C2=O [Ex. 161, [3a(4)Z]-9-methyl-16-(propan-2-yl)-10,11-dihydro-2H,13H-1,17-(ethanediylidene)[1,2]oxazolo[4,3-m]dipyrrolo[3,2-f:3′,4′-i][1,4]oxazacyclopentadecine-3,8(5H,9H)-dione]									% Ctrl, ABL1(F317L)-nonphosphorylated (kinases [1]; [12]): 93 % Ctrl; % Ctrl, ABL1(F317L)-phosphorylated (kinases [1]; [13]): 94 % Ctrl; % Ctrl, EGFR(E746-A750del) (kinases [2]; [14]): 87 % Ctrl; % Ctrl, EGFR(L858R, T790M) (kinases [3]; [15]): 96 % Ctrl; % Ctrl, KIT(D816H) (kinases [4]; 1 μM; target KIT(D816H)): 100 % Ctrl; % Ctrl, KIT(V559D) (kinases [5]; 1 μM; target KIT(V559D)): 92 % Ctrl; % Ctrl, FLT1 (kinases [6]; 1 μM; target FLT1): 82 % Ctrl; % Ctrl, FLT3(D835Y) (kinases [7]; 1 μM; target FLT3(D835Y)): 36 % Ctrl
Cc1cc2c([nH]1)/C=C1\C(=O)Nc3ccc(cc31)-c1cnn(C)c1CN(C)CCN(C)C2=O [Ex. 126, [3a(4)Z]-6,9,12,14-tetramethyl-9,10,11,12,13,14-hexahydro-1,17-(ethanediylidene)pyrazolo[4,3-m]dipyrrolo[3,2-f:3′,4′-i][1,4]diazacyclopentadecine-3,8(2H,5H)-dione]	1.7	0	3.9	0.15	0	1.4	0.65	1.4	
Cc1cc2c([nH]1)/C=C1\C(=O)Nc3cc(Cl)c(cc31)OCCO[C@@H](C(=O)N(C)C)CN(C)C2=O [Ex. 137, [7R,16a(17)Z]-19-chloro-N,N,2,5-tetramethyl-4,16-dioxo-4,5,6,7,9,10,15,16-octahydro-1H-12,14-(ethanediylidene)dipyrrolo[3,2-i:3′,4′-l][1,4,7]dioxazacyclopentadecine-7-carboxamide]	76	67	98	93	74	75	88	14	
